The text below walks through data of patent US20020034725A1, “SENSITIZATION OF CELLS TO RADIATION AND AND CHEMOTHERAPY” (priority 1996, published 2002).

For one experiment, the target named is FTase (Homo sapiens, UniProt P49354+P49356). The note with it: cited from earlier work.
A further experiment has as its system H-ras. The note with it: cited from earlier work.
Another experiment has as its system H-ras^v12. The experiment in a line: Western blot of H-ras farnesylation in H-ras transformed REF cells (3.7, 4R, 5R). The class given is cell-based, rat. The note with it: 5R cells, dose of 32 μM. From the text:
(§1) The oncogene-transfected cells used in this study were all derived from early passage rat embryo fibroblast (REF) by transfection with the pEJ plasmid containing the H-ras gene isolated from the EJ bladder carcinoma. This vector was introduced by calcium phosphate DNA transfer into primary REF, either alone or together with the pMC29 vector containing v-myc. One clone containing both the introduced H-ras gene and the v-myc genes is 3.7 (McKenna et al., 1990, Cancer Res. 50:97-102). 4R and 5R cells were obtained as rare transformants after transfection with the pEJ plasmid alone (McKenna et al., 1993, supra). MR4 cells were immortalized by transfection with an expression vector comprising v-myc linked to a neomycin-resistant selectable marker (McKenna et al., 1991, Radiat. Res. 125:283-287). REF-GG cells were obtained by transforming REF cells with a chimeric H-ras(v12) in which the CAAX motif is CVLL. All cell lines were mycoplasma free.
(§2) Cells were lysed in culture dishes with 1 x reducing Laemmli sample buffer. Samples were boiled, sheared and clarified by centrifugation at 14,000 rpm in a microfuge before storage at −20° C. Samples containing equal amounts of protein were separated on a 12% SDS polyacrylamide gel and electrophoretically transferred to nitrocellulose membranes. Membranes were blocked for 1-2 hours in PBS containing 0.1% Tween-20 and 5% powdered milk before antibody addition. Membranes were probed with monoclonal pan-ras antibody AB-4 (Oncogene Science, Uniondale, N.Y.) at a concentration of 0.5 μg/ml, or with monoclonal H-ras antibody LA069 (1:5000 dilution; Quality Biotech, Camden, N.J.). Detection of protein was accomplished using the ECL chemiluminescence kit (Amersham, Arlington Heights, Ill.). Images were digitized using an Arcus II scanner, and figures were assembled using Adobe Photoshop 3.0.
Transformed REF cells derived from the R5 cell line were treated with 5 μm FTI-277 to establish a time course for the accumulation of unfarnesylated H-ras. Prenylated forms of ras migrate more rapidly than unprenylated ras on SDSpolyacrylamide gels (Gutierrez et al., 1989, EMBO J. 8:1093-1098; Farh et al., 1995, Arch. Biochem. Biophys. 18:113-121). This shift in motility was used to assess the prenylation status of H-ras after farnesyltransferase inhibitor treatment.
In general terms: In western blotting, separated proteins are transferred to a membrane and probed.

The test system of another experiment is Rap1A. The note with it: cited from earlier work; for inhibition of Rap1A processing: whole cells.
A further experiment has as its system wild type c-H-ras. The experiment in a line: Western blot of ras farnesylation in untransformed REF and MR4 cells. It counts as cell-based, rat. The note with it: MR4 cells.
Description: as §1, §2

The subject of a further experiment is H-ras^v12 CVLL. Briefly: Western blot of prenylation of chimeric H-ras in REF-GG cells. The class given is cell-based, rat. The note with it: 24 hours, preliminary results.
Description: as §1
Cells were lysed in culture dishes with 1 x reducing Laemmli sample buffer. Samples were boiled, sheared and clarified by centrifugation at 14,000 rpm in a microfuge before storage at −20° C. Samples containing equal amounts of protein were separated on a 12% SDS polyacrylamide gel and electrophoretically transferred to nitrocellulose membranes. […]

The target of the next experiment is GGTase I (Homo sapiens, UniProt P49354+P53609). The note with it: cited from earlier work.
The subject of a further experiment is REF-GG cells. The experiment in a line: SF2 by limiting dilution analysis of clonogens. The class given is cell-based, rat. The note with it: 8 μM GGTI-298. The protocol: FIG. 14B comprises two graphs depicting clonogenic survival of REF-GG cells following treatment with GGTI-298 and irradiation. REF-GG cells were plated at 1 to 5 cells per well in microtiter plates in the absence (top panel) or presence (bottom panel) of 8 μM of the geranylgeranyltransferase inhibitor, GGTI-298. Cells were then irradiated with 2 Gray or were mock irradiated. Cells were re-fed after 24 hours with medium that contained no inhibitor, thus diluting the inhibitor to 0.8 μM. These cells were then incubated for two weeks prior to scoring for colony formation. The data are presented as the natural log of the fraction of negative wells. The surviving fraction at 2 Gray was determined from the differences in the slopes obtained by linear regression of analysis of irradiated and unirradiated cells. The surviving fraction at 2 Gray calculated for cells irradiated after GGTI-298 treatment was 0.64. Control cell surviving fraction after 2 Gray was 0.91. The correlation coefficient for linear regression analysis (r^2) was greater than 0.95 in all cases.
Cells were irradiated with the indicated doses of ionizing radiation and were treated with FTI-277 for 24 hours after irradiation (FIG. 14A). […] The shoulders of the survival curves were reduced as were the overall slopes of the survival curves. […]

The next experiment relates to K-ras. Briefly: Western blot of K-ras prenylation in SW480 and Panc-1 cells. The note with it: 8 μM GGTI-298 alone. It counts as cell-based, human. The protocol: FIG. 17A is an image of a Western blot depicting inhibition by FTI-277 of K-ras prenylation in human SW480 colon carcinoma cells. SW480 cells were treated with the indicated concentrations of FTI-277 (μM) for 48 hours. Samples were harvested and cell lysates were analyzed by Western blotting using either a H-ras monoclonal antibody (top) or a K-ras monoclonal antibody (bottom). Arrows indicate unfarnesylated ras bands.
FIG. 18A is an image of a Western blot depicting the specific inhibition of K-ras prenylation by combined FTI-277 and GGTI-298 treatment. Log phase cultures of human pancreatic carcinoma cells (Panc-1) and colon carcinoma cells (SW480) were treated with 5 μM FTI and 8 μM GGTI 298 for 48 hours. Cell samples were then harvested and cell lysates were prepared for Western blot analysis using monoclonal antibodies to K-ras and nuclear lamin B. The electrophoretic mobility of the K-ras mutant in SW480 is slower than that of the mutant K-ras in Panc-1 cells.

Take 2-hydroxyfarnesylphosphonic acid: the FTase inhibition result at FTase is “inhibit FTase”. For the same compound, the H-Ras processing result with H-ras was “inhibits H-Ras processing”.
On to `COC(=O)[C@H](CCSC)NC(=O)[C@H](/C=C\[C@@H](/C=C/[C@@H](N)CS)C(C)C)Cc1ccccc1` [B1086], for which the FTase inhibition result on FTase is given as “capable of inhibiting FTase”.
Regarding `CSCC[C@H](NC(=O)c1ccc(NC[C@@H](N)CS)cc1)C(=O)O` [FTI-249], the FTase inhibition entry on FTase was “potent FTase inhibitor”.
As for `CSCC[C@H](NC(=O)c1ccc(NC[C@@H](N)CS)cc1-c1ccccc1)C(=O)O` [FTI-276], at FTase, the FTase inhibition result is “inhibited Ftase activity”.
On to `COC(=O)[C@H](CC(C)C)NC(=O)c1ccc(NC[C@@H](N)CS)cc1-c1ccccc1` [GGTI-286], for which the “inhibition of farnesylated H-ras^v12 (CVLS)” value in the experiment with H-ras^v12 is recorded as “only partially inhibited”. The “inhibition of Rap1A processing” value in the experiment with Rap1A was “potent inhibitor of posttranslational processing of Rap1A”. Moreover, the “migration of endogenous wild-type c-H-ras” value in the experiment with wild type c-H-ras was “no effect on the migration of this protein”. In addition, in the experiment with H-ras^v12 CVLL, the “lowest dose with effective inhibition of geranylgeranylation of chimeric H-ras^v12” value came to 4 µM.
Take `CC(C)C[C@H](NC(=O)c1ccc(NC[C@@H](N)CS)cc1-c1ccccc1)C(=O)O` [GGTI-287]: the “increase in potency of inhibition of GGTase I” value on GGTase I (relative to GGTI-279) is reported as 20 fold. Besides, at FTase (relative to GGTI-279), the “increase in potency of inhibition of FTase” value is 20 fold.
In the case of `CC(C)C[C@H](NC(=O)c1ccc(NC[C@@H](N)CS)cc1-c1cccc2ccccc12)C(=O)O` [GGTI-297], at GGTase I, the “GGTase I inhibition” value was “inhibitors of GGTase I and FTase”; the “potency, less potent than GGTI-287” value is on record as 10 fold. In addition, the “selectivity for GGTase I over FTase” value on GGTase I (in vitro) is recorded as 5 fold. The FTase inhibition result at FTase was “inhibitors of GGTase I and FTase”.
In the case of `COC(=O)[C@H](CC(C)C)NC(=O)c1ccc(NC[C@@H](N)CS)cc1-c1cccc2ccccc12` [GGTI-298], the Rap1A protein processing entry with Rap1A (concentration of 10 μM) is “completely inhibiting Rap1A protein processing”. For the same compound, the “inhibition of Rap1A processing” value in the experiment on Rap1A was “as potent as GGTI-286”. Also, on GGTase I, the “GGTase I inhibition” value is “inhibitors of GGTase I and FTase”. The “SF2 (surviving fraction at 2 Gray)” value in the experiment with REF-GG cells is reported as 0.64. On FTase, the FTase inhibition result was “inhibitors of GGTase I and FTase”. Also, the H-ras processing result in the experiment on H-ras (concentration of 10 μM) is listed as “without affecting H-ras processing”. Further, the “prenylation of K-ras” value with K-ras was “no effect on prenylation of K-ras”.
For the compound `CC[C@H](C)[C@@H](CO[C@@H](Cc1ccccc1)C(=O)N[C@@H](CCS(C)(=O)=O)C(=O)OC)NC[C@@H](N)CS` [L-739,749], the FTase inhibition result at FTase is listed as “very potent inhibitors of FTase”.
For `CC[C@H](C)[C@@H](CO[C@@H](Cc1ccccc1)C(=O)N[C@@H](CCS(C)(=O)=O)C(=O)O)NC[C@@H](N)CS` [L-739,750], the FTase inhibition entry at FTase is “very potent inhibitors of FTase”.
For the compound `CC[C@H](C)[C@@H](CO[C@@H](Cc1ccccc1)C(=O)N[C@@H](CCS(C)(=O)=O)C(=O)OC(C)C)NC[C@@H](N)CS` [L-744,832], the “farnesylation of endogenous H-ras” value in the experiment on wild type c-H-ras (highest dose used) is “less susceptible to farnesylation inhibition”.
For `COCC[C@@H]1CN(C(=O)c2cccc3ccccc23)CCN1C[C@H](N)CS` [L-745,631], the “mode of FTase inhibition” value on FTase is reported as “competitive with respect to H-Ras binding to FTase”. Moreover, the “FTase activity in whole cells” value in the experiment on H-ras (whole cells) is recorded as “inhibits FTase activity in whole cells”.
Take `O=C(Cc1ccncc1)N1CCC(=C2c3ccc(Cl)cc3CCc3cccnc32)CC1` [SCH-44342]: the “mode of FTase inhibition” value at FTase is recorded as “competitive inhibitor of FTase”.
On to (bz-(0)-His-Tyr-Ser [PD-15169], for which the FTase inhibition result on FTase is “inhibits FTase activity”.
Take “farnesylmethyl-hydroxyphosphinylmethyl phosphoric acid”: the FTase inhibition result on FTase was “inhibit FTase”.
